Results reported in PubChem BioAssay AID2581 (Johns Hopkins Ion Channel Center, 2010).
Active and inactive are the calls of the source.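 How the source made its calls: active means any inhibition of Kir2.1 potassium channel current, measured at -100 mV, at any tested dose; inactive means no inhibition seen at any dose.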

target: Inward rectifier potassium channel 2 (Mus musculus) (UniProt P35561); assay: mouse Kir2.1 channel blockers, dose response, orthogonal assay for Kir2.1 inhibitor project, cell-based, automated electrophysiology, IonWorks patch clamp (AID 2581); settings: Kir2.1 cell line, IonWorks patch clamp current at -100 mV
Sequence (P35561 whole entry, looked up): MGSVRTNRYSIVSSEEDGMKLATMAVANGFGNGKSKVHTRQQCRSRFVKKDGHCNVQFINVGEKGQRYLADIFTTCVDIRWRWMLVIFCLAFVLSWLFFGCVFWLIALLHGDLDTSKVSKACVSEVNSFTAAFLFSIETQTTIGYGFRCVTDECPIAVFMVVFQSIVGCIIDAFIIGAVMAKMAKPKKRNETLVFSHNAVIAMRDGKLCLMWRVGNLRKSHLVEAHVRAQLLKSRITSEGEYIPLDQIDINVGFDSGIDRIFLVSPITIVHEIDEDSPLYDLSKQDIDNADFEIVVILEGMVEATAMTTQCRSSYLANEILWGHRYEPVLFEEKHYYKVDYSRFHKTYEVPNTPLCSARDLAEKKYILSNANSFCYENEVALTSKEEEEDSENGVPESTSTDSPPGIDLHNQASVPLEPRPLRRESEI

Compound | IC50
COc1ccc(CNCc2ccc(OC)cc2)cc1 | 13.3 µM
COc1ccc(CNC2CCCc3ccccc32)cc1 (centres undefined) | 9.05 µM
COc1ccc(CNCc2ccc(OC)c3ccccc23)cc1OC | 23.5 µM
COc1ccc(CNCc2ccc(OC(F)(F)F)cc2)cc1 | 24.1 µM
COc1ccc(CNCc2ccccc2C)cc1 | 16.8 µM
COc1ccc(CNCc2cccc(Cl)c2)cc1 | 8.99 µM
COc1ccc(CNCc2ccc3ccccc3c2)cc1 | 9.76 µM
COc1ccc(CNCc2ccc(OC)c(Cl)c2)cc1 | 5.11 µM
COc1ccccc1CNCc1cccc2ccccc12 | 18.1 µM
COc1ccc(CNCc2cccc3ccccc23)c(OC)c1 | 28.2 µM
COc1ccc(CNCc2ccc(C(C)(C)C)cc2)cc1 | 14 µM
COc1cccc(CNCc2cccc3ccccc23)c1 | 23.6 µM
COc1ccc(CNCc2ccc(OC)c3ccccc23)cc1 | 20.6 µM
COc1ccc(CNCc2cccc3ccccc23)cc1OC | 23 µM
COc1ccc(CNCc2ccc(Cl)cc2)cc1 | 11.5 µM
COc1ccc(CNCc2ccc(C)cc2)cc1 | 8.01 µM

same assay, conditions: Kir2.1 cell line, IonWorks patch clamp current at -100 mV; at 30 µM (top of the series)

Compound | channel activity, lower = inhibition
COc1ccc(CNCc2ccncc2)cc1 | inactive
Clc1ccc(CNCc2cccc3ccccc23)cc1 | inactive
FC(F)(F)Oc1ccc(CNCc2cccc3ccccc23)cc1 | inactive
COc1ccc(CNCc2ccccn2)cc1 | inactive
COc1ccc(CNCc2cccnc2)cc1 | inactive
COc1cc(Br)c(CN(C)Cc2cccc3ccccc23)cc1OC | inactive
COc1cc(CN(C)Cc2cccc3ccccc23)ccc1OCc1ccccc1 | inactive
COc1ccc(CNCc2ccccc2)cc1 | inactive
COc1ccc(C(C)NCc2cccc3ccccc23)cc1 (centres undefined) | inactive
COc1cc(CN(C)Cc2cccc3ccccc23)c([N+](=O)[O-])cc1OC | inactive
COc1ccc(CNC(C)c2cccc3ccccc23)cc1 (centres undefined) | inactive
Clc1ccc(CNCc2cccc3ccccc23)c(Cl)c1 | inactive
Fc1cccc(CNCc2cccc3ccccc23)c1F | inactive
COc1ccc(COCc2cccc3ccccc23)cc1 | inactive
CC(C)(C)c1ccc(CNCc2cccc3ccccc23)cc1 | inactive
COc1ccc(C(=O)NCc2cccc3ccccc23)cc1 | inactive
Clc1cccc(CNCc2cccc3ccccc23)c1 | inactive
COc1ccc(CNC(=O)c2cccc3ccccc23)cc1 | inactive
